Source: ChEMBL document CHEMBL4177731, “Synthesis, in vitro α-glucosidase inhibitory activity and docking studies of novel chromone-isatin derivatives” (Bioorg Med Chem Lett, 2018)

Experiment: Inhibition of Saccharomyces cerevisiae alpha-glucosidase pre-incubated for 15 mins before p-nitrophenyl alpha-D-glucopyranoside substrate addition and measured after 30 mins by spectrophotometry

Row | SMILES | IC50 [µM]
1 | O=C1/C(=N\N=C\c2coc3ccccc3c2=O)c2ccccc2N1Cc1cccc(F)c1 | 16
2 | O=C1/C(=N\N=C\c2coc3ccccc3c2=O)c2ccccc2N1Cc1ccccc1Cl | 13.5
3 | O=C1/C(=N\N=C\c2coc3cc(O)ccc3c2=O)c2ccccc2N1Cc1ccc(Br)cc1 | 3.18
4 | O=C1/C(=N\N=C\c2coc3cc(O)ccc3c2=O)c2ccccc2N1Cc1ccc(Cl)cc1Cl | 4.25
5 | O=C1/C(=N\N=C\c2coc3cc(O)ccc3c2=O)c2ccccc2N1Cc1ccccc1Br | 4.73
6 | O=C1/C(=N\N=C\c2coc3cc(O)ccc3c2=O)c2ccccc2N1Cc1ccccc1F | 4.57
7 | O=C1/C(=N\N=C\c2coc3ccccc3c2=O)c2ccccc2N1Cc1ccc(Cl)cc1 | 16.6
8 | O=C1/C(=N\N=C\c2coc3ccccc3c2=O)c2ccccc2N1Cc1ccc(Br)cc1 | 8.17

Other lines, results leading:

Row | IC50 [µM] | SMILES
9 | 5.51 | O=C1/C(=N\N=C\c2coc3cc(O)ccc3c2=O)c2ccccc2N1Cc1ccccc1Cl
10 | 3.82 | O=C1/C(=N\N=C\c2coc3cc(O)ccc3c2=O)c2ccccc2N1Cc1ccc(F)cc1
11 | 16.2 | O=C1Nc2ccccc2/C1=N/N=C/c1coc2ccccc2c1=O
12 | 11.8 | CN1C(=O)/C(=N\N=C\c2coc3ccccc3c2=O)c2ccccc21
13 | 9.8 | O=C1/C(=N\N=C\c2coc3ccccc3c2=O)c2ccccc2N1Cc1ccc(F)cc1
14 | 14 | O=C1/C(=N\N=C\c2coc3ccccc3c2=O)c2ccccc2N1Cc1ccccc1F
15 | 3.9 | O=C1/C(=N\N=C\c2coc3cc(O)ccc3c2=O)c2ccccc2N1Cc1ccc(Cl)cc1
16 | 4.17 | O=C1/C(=N\N=C\c2coc3cc(O)ccc3c2=O)c2ccccc2N1Cc1cccc(F)c1
